Measured values taken from US20260256759A1, “CONCOMITANT ADMINISTRATION OF GLUCOCORTICOID RECEPTOR MODULATOR RELACORILANT AND CYP2C8 SUBSTRATES” (priority 2020, published 2026).

Biological target: T1, CYP2C8 (Homo sapiens, UniProt P10632)
T1 sequence (P10632 1-490): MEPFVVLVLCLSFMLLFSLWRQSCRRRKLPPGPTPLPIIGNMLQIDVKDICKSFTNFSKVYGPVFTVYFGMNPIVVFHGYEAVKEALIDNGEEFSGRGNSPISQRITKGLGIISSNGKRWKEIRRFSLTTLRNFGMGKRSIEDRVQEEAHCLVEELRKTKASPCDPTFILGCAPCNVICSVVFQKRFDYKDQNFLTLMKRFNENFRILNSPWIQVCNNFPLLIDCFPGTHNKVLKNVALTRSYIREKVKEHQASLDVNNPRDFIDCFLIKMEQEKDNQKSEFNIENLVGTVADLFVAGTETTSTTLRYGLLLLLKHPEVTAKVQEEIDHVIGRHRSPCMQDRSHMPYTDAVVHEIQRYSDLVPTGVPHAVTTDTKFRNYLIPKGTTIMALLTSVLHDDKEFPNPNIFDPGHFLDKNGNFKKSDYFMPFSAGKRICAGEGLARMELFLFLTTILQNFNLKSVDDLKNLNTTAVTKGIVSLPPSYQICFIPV
Experiment: Clinical drug-drug interaction study in healthy volunteers (pioglitazone with/without relacorilant)
Conditions: Treatment E (with relacorilant 350 mg) vs Treatment B (alone)
Procedure: An open-label, crossover study was conducted in healthy subjects to determine the effect of relacorilant on the plasma exposure of pioglitazone, a known probe substrate CYP2C8. A single dose of 15 mg of pioglitazone was administered alone and pharmacokinetic (PK) samples were collected before dosing (0 hour) and at 0.5, 1, 1.5, 2, 2.5, 3, 4, 6, 8, 12, 18, 24, 36, 48, 60, and 72 hours post-dose. Relacorilant (350 mg) was then administered once a day for 10 consecutive days. On the following day, a single dose of 15 mg of pioglitazone was administered in combination with relacorilant 350 mg and pharmacokinetic (PK) samples were again collected at pre-dose through 72 hours post-dose at the same timepoints as described above. The plasma concentrations of pioglitazone and its metabolite, pioglitazone M4 were evaluated by validated bioanalytical assays on each dosing occasion of pioglitazone.

Compound: CCc1ccc(CCOc2ccc(CC3SC(=O)NC3=O)cc2)nc1 (stereo not drawn) [Pioglitazone, pioglitazone]
- AUC0-tz, Ratio of Geometric LSMs (Test/Reference): 74.71%
- AUCinf, Ratio of Geometric LSMs (Test/Reference): 74.83%
- Cmax, Ratio of Geometric LSMs (Test/Reference): 77.82%
